Measurements taken from patent US20150315188A1, “COMPOUNDS AND METHODS FOR TREATMENT OF HYPERTENSION” (MEDIVATION TECHNOLOGIES, INC., priority 2012, published 2015).
Where two headings read alike, the source gives them in different places.

Key:
[1] = target: T1, Human adrenergic α2A receptor (Homo sapiens, UniProt P08913); experiment: Radioligand binding, adrenergic α2A (Protocol Group B); parameters: purchased Milipore (Millipore); conditions: Protocol Group B; for Ki: estimated Ki
T1 sequence (P08913 1-465): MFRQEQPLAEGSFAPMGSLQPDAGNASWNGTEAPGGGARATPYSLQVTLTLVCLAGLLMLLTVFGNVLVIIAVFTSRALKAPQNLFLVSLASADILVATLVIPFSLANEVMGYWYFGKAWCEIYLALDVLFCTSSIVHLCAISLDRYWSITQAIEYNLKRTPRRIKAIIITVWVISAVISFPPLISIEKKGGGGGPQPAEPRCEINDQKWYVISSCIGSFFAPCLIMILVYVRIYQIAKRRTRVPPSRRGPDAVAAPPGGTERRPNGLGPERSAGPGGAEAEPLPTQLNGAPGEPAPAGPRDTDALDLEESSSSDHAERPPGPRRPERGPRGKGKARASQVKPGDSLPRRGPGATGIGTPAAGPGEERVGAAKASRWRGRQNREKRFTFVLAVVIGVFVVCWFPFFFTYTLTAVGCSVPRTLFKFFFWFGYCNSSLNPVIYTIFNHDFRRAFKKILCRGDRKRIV
How it was run: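 Membranes from recombinant cells expressing the receptor, in 50 mM Tris-HCl pH 7.4 with 5 mM MgCl2, 1 mM CaCl2, 0.2% BSA; compounds incubated with 2 nM [^3H]MK-912 for 60 min at 25° C. Nonspecific binding defined by 10 μM rauwolscine; filtration, counting; percent inhibition of specific binding, or estimated Ki.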

[2] = target: T1, Human adrenergic α2A receptor; experiment: β-Arrestin GPCR functional assay, adrenergic α2A (Protocol B); assay type: cell-based; conditions: β-arrestin, antagonist vs nor-epinephrine EC80
Method: (§1) To evaluate the activity of compounds in β-Arrestin GPCR functional assays, recombinant CHO cell line (DiscoveRX), over expressed with human adrenergic α2A receptor were used. The experiment was done with kit of DiscoveRX as per recommended protocol of the supplier. Cells were harvested from culture flask using cell dissociation solution (CDS) and plated at a density of 12,000 cells/well in CP reagent (supplied with the kit) in a half area 96-well white polystyrene plate. After 24 h incubation at 37° C., compounds at various concentrations in 1% (final) DMSO were charged to the cells for 30 min at 37° C. Active nor-epinephrine (-NE) at its EC80 concentrations (270 nM) were then added to the cells and incubated for another 90 min at 37° C. Detection mix was prepared by mixing of Path Hunter cell assay buffer, Emerald II solution and Galactone star solution in a ratio of 19:5:1 and incubated with the cells for 60 min at RT in the dark. The reading was taken in Envision at luminescence mode. Biochemical assay results are presented as the percent Inhibition in Table B2a, or IC50 values in Table B2b.

[3] = target: T2, Human adrenergic α2B receptor (Homo sapiens, UniProt P18089); experiment: Radioligand binding, adrenergic α2B (Protocol Group B); parameters: purchased Milipore (Millipore); conditions: Protocol Group B; for Percentage inhibition of ligand binding, Adrenergic α2B (10 nM): 0.01 µM; for Percentage inhibition of ligand binding, Adrenergic α2B (30 nM): 0.03 µM; for Percentage inhibition of ligand binding, Adrenergic α2B (0.1 μM): 0.1 μM compound; for Ki: estimated Ki
T2 sequence (P18089 1-450): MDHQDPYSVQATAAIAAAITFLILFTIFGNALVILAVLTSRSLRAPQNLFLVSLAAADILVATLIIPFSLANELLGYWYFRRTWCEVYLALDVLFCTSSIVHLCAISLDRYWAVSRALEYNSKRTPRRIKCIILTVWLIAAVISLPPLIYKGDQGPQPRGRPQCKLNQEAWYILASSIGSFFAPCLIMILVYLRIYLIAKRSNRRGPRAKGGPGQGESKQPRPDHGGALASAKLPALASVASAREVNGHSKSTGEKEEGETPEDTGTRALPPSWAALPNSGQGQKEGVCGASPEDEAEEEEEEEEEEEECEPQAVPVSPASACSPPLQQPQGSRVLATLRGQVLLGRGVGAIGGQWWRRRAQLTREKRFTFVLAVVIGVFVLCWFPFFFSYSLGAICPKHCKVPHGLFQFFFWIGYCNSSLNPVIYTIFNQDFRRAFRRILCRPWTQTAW
How it was run: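 Recombinant human α2B receptor membranes incubated with compounds in 50 mM Tris-HCl pH 7.4, 5 mM MgCl2, 1 mM CaCl2, 0.2% BSA, 1% DMSO vehicle. Non-specific binding defined with 10 μM rauwolscine. Values are percent inhibition of specific binding or estimated Ki.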

[4] = target: T2, Human adrenergic α2B receptor; experiment: β-Arrestin GPCR functional assay, adrenergic α2B (Protocol B); assay type: cell-based; conditions: β-arrestin, antagonist vs nor-epinephrine EC80
Method: as §1, with “α2B” for “α2A”, “(50” for “(270”

[5] = target: T3, Human adrenergic α1B receptor (Homo sapiens, UniProt P35368); experiment: Radioligand binding, adrenergic α1B (Protocol Group B); parameters: purchased Milipore (Millipore); conditions: Protocol Group B; for Percentage inhibition of ligand binding, Adrenergic α1B (0.3 μM) / inhibition at 0.3 µM: 0.3 μM compound; for inhibition at 0.3 µM: read-out: Percentage inhibition of ligand binding, Adrenergic α1B (0.3 μM)
T3 sequence (P35368 1-520): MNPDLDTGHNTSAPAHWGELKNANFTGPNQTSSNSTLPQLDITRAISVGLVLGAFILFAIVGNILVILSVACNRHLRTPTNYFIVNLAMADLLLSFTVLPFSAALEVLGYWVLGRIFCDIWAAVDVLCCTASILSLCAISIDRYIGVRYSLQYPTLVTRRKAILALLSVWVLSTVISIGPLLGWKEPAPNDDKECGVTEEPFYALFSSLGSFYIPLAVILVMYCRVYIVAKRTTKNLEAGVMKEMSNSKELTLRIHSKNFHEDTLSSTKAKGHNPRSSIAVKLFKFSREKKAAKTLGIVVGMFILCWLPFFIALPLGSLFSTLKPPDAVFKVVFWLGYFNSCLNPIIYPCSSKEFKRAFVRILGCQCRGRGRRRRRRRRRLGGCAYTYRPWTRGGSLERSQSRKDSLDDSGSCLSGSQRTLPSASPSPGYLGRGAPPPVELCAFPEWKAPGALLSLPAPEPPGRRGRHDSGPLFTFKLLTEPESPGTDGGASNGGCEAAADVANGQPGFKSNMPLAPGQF
How it was run: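 Recombinant human α1B membranes incubated with test compound and 0.3 nM [3H]prazosin, 60 min at 25 °C, in 50 mM Tris-HCl pH 7.4, 10 mM MgCl2, 1 mM EDTA; nonspecific binding with 10 μM prazosin. Filter-bound radioactivity counted; values are % inhibition of specific binding or estimated Ki.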

Row | Percentage inhibition of ligand binding, Adrenergic α2A (0.1 μM) ([1]; 0.1 μM compound) | Percentage inhibition of ligand binding, Adrenergic α2A (0.3 μM) ([1]; 0.3 μM compound) | IC50 [2] | Percentage inhibition of ligand binding, Adrenergic α2B (10 nM) ([3]; 10 nM compound) | Percentage inhibition of ligand binding, Adrenergic α2B (30 nM) ([3]; 30 nM compound) | IC50 ([4]; read-out: IC50 Adrenergic α2B) | Percentage inhibition of ligand binding, Adrenergic α1B (0.1 μM) ([5]; 0.1 μM compound) | Percentage inhibition of ligand binding, Adrenergic α1B (0.3 μM) [5] | Ki [1] | Ki ([3]; read-out: Ki α2B) | SMILES | further results
1 | 7% | 31% | 7820 nM | 43% | 71% | 364 nM | 2% | 23% | – | – | Cc1ccc2c(c1)c1c(n2CC(C)(O)c2cccnc2)CC2CCCN2C1 (single isomer, unassigned) [38c] | Percentage inhibition of ligand binding, Adrenergic α2B (0.1 μM) [3]: 92%
2 | 68% | 85% | 1650 nM | 98% | 100% | 15 nM | 49% | 76% | 27.3 nM | 0.93 nM | Cc1cc(F)c2c(c1)c1c(n2CC(C)(O)c2ccncc2)CCN2CCCC12 (single isomer, unassigned) [81b] | Percentage inhibition of ligand binding, Adrenergic α2B (0.1 μM) [3]: 100%; Ki ([5]; estimated Ki): 35.6 nM
3 | 52% | 72% | – | – | – | 388 nM | 15% | – | 43.9 nM | 1.45 nM | CC(O)(Cn1c2c(c3cc(F)cc(Cl)c31)C1CCCN1CC2)c1ccncc1 (single isomer, unassigned) [88a] | inhibition at 0.01 µM ([3]; 10 nM compound, read-out: Percentage inhibition of ligand binding, Adrenergic α2B (10 nM)): 86%; inhibition at 0.03 µM ([3]; 30 nM compound, read-out: Percentage inhibition of ligand binding, Adrenergic α2B (30 nM)): 93%; inhibition at 0.3 µM [5]: 43%
4 | 19% | 44% | – | 70% | 90% | 166 nM | −1% | 33% | – | 2.85 nM | CC(O)(Cn1c2c(c3cc(F)cc(Cl)c31)C1CCCN1CC2)c1ccncc1 (single isomer, unassigned) [88b] | –
5 | 24% | 40% | – | 54% | 78% | 45.5 nM | 0% | 22% | – | 7.6 nM | CC(O)(Cn1c2c(c3cc(F)cc(Cl)c31)C1CCCN1CC2)c1cccnc1 (single isomer, unassigned) [89c] | –
6 | 74% | 99% | 1970 nM | 104% | 115% | – | 15% | 54% | 26.2 nM | 0.85 nM | CC(O)(Cn1c2c(c3cc(F)cc(Cl)c31)C1CCCN1CC2)c1cccnc1 (single isomer, unassigned) [89d] | –
7 | – | – | – | – | – | – | – | – | – | – | Cc1ccc2c(c1)c1c(n2CC(C)(O)c2ccc(F)cc2)CC2CCC1N2C (single isomer, unassigned) [102b] | inhibition at 0.1 µM ([1]; 0.1 μM compound, read-out: Percentage inhibition of ligand binding, Adrenergic α2A (0.1 μM)): -1%; inhibition at 0.3 µM ([1]; 0.3 μM compound, read-out: Percentage inhibition of ligand binding, Adrenergic α2A (0.3 μM)): 23%; Ki ([3]; Ki α2B): 19.3 nM; inhibition at 0.01 µM ([3]; read-out: Percentage inhibition of ligand binding, Adrenergic α2B (10 nM), 10 nM compound): 28%; inhibition at 0.03 µM ([3]; read-out: Percentage inhibition of ligand binding, Adrenergic α2B (30 nM), 30 nM compound): 56%; inhibition at 0.1 µM ([3]; read-out: Percentage inhibition of ligand binding, Adrenergic α2B (0.1 μM), 0.1 μM compound): 70%; IC50 ([4]; IC50 Adrenergic α2B): 412 nM; inhibition at 0.1 µM ([5]; 0.1 μM compound, read-out: Percentage inhibition of ligand binding, Adrenergic α1B (0.1 μM)): 5%; inhibition at 0.3 µM [5]: 26%
8 | 45% | 72% | – | 76% | 96% | 68.3 nM | 24% | 63% | – | 2.45 nM | Cc1cc(F)cc2c3c(n(CC(O)c4ccncc4)c12)CCN1CCCC31 (single isomer, unassigned) [136b] | –
